Measured values taken from US9527856B2, “Oxindole compounds carrying a CO-bound spiro substituent and use thereof for treating vasopressin-related diseases” (AbbVie Deutschland GmbH & Co. KG, priority 2014, dated 2016).

How the values were obtained:
[1] = molecular target: T1, human vasopressin V1b receptor (Homo sapiens, UniProt P47901); assay: biochemical; settings: Ki(h-V1b)* [nM], CHO-K1 cell membranes, displacement of 3H-AVP
T1 sequence (P47901 1-424): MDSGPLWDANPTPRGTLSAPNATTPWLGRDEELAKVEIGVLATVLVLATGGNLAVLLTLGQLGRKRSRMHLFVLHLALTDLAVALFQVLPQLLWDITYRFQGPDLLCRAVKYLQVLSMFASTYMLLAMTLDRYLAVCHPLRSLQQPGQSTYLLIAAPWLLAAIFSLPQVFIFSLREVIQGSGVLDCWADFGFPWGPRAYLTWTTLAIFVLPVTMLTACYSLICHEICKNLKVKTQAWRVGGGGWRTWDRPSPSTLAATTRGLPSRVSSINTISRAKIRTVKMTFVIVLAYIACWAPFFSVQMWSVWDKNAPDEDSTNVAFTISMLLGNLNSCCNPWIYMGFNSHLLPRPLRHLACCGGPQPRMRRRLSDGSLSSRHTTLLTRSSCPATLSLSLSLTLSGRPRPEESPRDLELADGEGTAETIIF

[2] = molecular target: human vasopressin V1a receptor (Homo sapiens, UniProt P37288); assay: Vasopressin V1a receptor binding assay; settings: selectivity for human V1b over human V1a, quotient of binding constants
human vasopressin V1a receptor, sequence (P37288 whole entry): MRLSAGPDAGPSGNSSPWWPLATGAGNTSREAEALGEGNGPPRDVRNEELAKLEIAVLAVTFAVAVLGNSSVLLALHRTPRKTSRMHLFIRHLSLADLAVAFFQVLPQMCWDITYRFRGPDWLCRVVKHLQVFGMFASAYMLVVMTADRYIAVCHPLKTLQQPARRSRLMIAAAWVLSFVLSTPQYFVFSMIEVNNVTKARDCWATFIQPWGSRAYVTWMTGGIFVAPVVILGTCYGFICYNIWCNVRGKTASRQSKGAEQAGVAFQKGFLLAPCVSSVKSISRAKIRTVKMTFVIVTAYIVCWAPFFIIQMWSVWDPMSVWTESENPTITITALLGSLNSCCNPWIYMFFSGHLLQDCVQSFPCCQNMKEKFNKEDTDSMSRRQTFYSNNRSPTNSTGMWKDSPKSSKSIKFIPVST

Compound	Ki [1]	Ki(h-V1a)/Ki(h-V1b) [2]
CCOc1ncccc1C1(NC(=O)N2CC3(C2)CN(C2CCN(C(C)C)CC2)C3)C(=O)N(S(=O)(=O)c2ccc(OC)cc2OC)c2ccc(C#N)cc21 (racemic) [Example 22, (±)-N-[5-Cyano-1-(2,4-dimethoxyphenyl)sulfonyl-3-(2-ethoxy-3-pyridyl)-2-oxo-indolin-3-yl]-2-(1-isopropyl-4-piperidyl)-2,6-diazaspiro[3.3]heptane-6-carboxamide]	1 to 10 nM	+++ (>75)
CCOc1ncccc1C1(NC(=O)N2CC3(CCNCC3)C2)C(=O)N(S(=O)(=O)c2ccc(OC)cc2OC)c2ccc(C#N)cc21.O=C(O)C(F)(F)F (centres unmarked) [Example 60, N-(5-Cyano-1-(2,4-dimethoxyphenylsulfonyl)-3-(2-ethoxypyridin-3-yl)-2-oxoindolin-3-yl)-2,7-diazaspiro[3.5]nonane-2-carboxamide 2,2,2-trifluoroacetate]	1 to 10 nM	++ (25-75)
CCOc1ncccc1[C@]1(NC(=O)N2CC3(C2)CN(C2COC2)C3)C(=O)N(S(=O)(=O)c2ccc(F)cc2)c2ccc(C#N)cc21 [Example 31, N-[(3S)-5-Cyano-3-(2-ethoxy-3-pyridyl)-1-(4-fluorophenyl)sulfonyl-2-oxo-indolin-3-yl]-2-(oxetan-3-yl)-2,6-diazaspiro[3.3]heptane-6-carboxamide]	10 to 100 nM	–
CCOc1ncccc1[C@]1(NC(=O)N2CC3(CN(CCN4CCOCC4)C3)C2)C(=O)N(S(=O)(=O)c2ccc(OC)cc2F)c2ccc(C#N)cc21.O=C(O)C(F)(F)F [Example 6, N-[(3S)-5-Cyano-3-(2-ethoxy-3-pyridyl)-1-(2-fluoro-4-methoxy-phenyl)sulfonyl-2-oxo-indolin-3-yl]-2-(2-morpholinoethyl)-2,6-diazaspiro[3.3]heptane-6-carboxamide; 2,2,2-trifluoroacetic acid]	1 to 10 nM	++ (25-75)
CCOc1ncccc1[C@]1(NC(=O)N2CC3(CN(CCN4CCCCC4)C3)C2)C(=O)N(S(=O)(=O)c2ccc(OC)cc2)c2ccc(C#N)cc21 [Example 13, N-[(3S)-5-Cyano-3-(2-ethoxy-3-pyridyl)-1-(4-methoxyphenyl)sulfonyl-2-oxo-indolin-3-yl]-2-[2-(1-piperidyl)ethyl]-2,6-diazaspiro[3.3]heptane-6-carboxamide]	< 1 nM	++ (25-75)
CCOc1ncccc1[C@]1(NC(=O)N2CC3(CN(CCN4CCOCC4)C3)C2)C(=O)N(S(=O)(=O)c2ccc(C#N)cc2)c2ccc(C#N)cc21 [Example 5, N-[(3S)-5-cyano-1-(4-cyanophenyl)sulfonyl-3-(2-ethoxy-3-pyridyl)-2-oxo-indolin-3-yl]-2-(2-morpholinoethyl)-2,6-diazaspiro[3.3]heptane-6-carboxamide]	10 to 100 nM	+++ (>75)
CCOc1ncccc1C1(NC(=O)C2CC3(C2)CC(N2CC4(CNC4)C2)C3)C(=O)N(S(=O)(=O)c2ccc(OC)cc2OC)c2ccc(C#N)cc21 (centres unmarked) [Example 48, N-(5-Cyano-1-(2,4-dimethoxyphenylsulfonyl)-3-(2-ethoxypyridin-3-yl)-2-oxoindolin-3-yl)-6-(2,6-diazaspiro[3.3]heptan-2-yl)spiro[3.3]heptane-2-carboxamide 2,2,2-trifluoroacetate]	1 to 10 nM	–
CCOc1ncccc1C1(NC(=O)N2CCC3(CC2)CNC3)C(=O)N(S(=O)(=O)c2ccc(OC)cc2OC)c2ccc(C#N)cc21 (centres unmarked) [Example 51, N-(5-Cyano-1-(2,4-dimethoxyphenylsulfonyl)-3-(2-ethoxypyridin-3-yl)-2-oxoindolin-3-yl)-2,7-diazaspiro[3.5]nonane-7-carboxamide 2,2,2-trifluoroacetate]	10 to 100 nM	–
CCOc1ncccc1C1(NC(=O)N2CCC3(CCN(CC)CC3)CC2)C(=O)N(S(=O)(=O)c2ccc(OC)cc2OC)c2ccc(C#N)cc21 (centres unmarked) [Example 56, N-(5-Cyano-1-(2,4-dimethoxyphenylsulfonyl)-3-(2-ethoxypyridin-3-yl)-2-oxoindolin-3-yl)-9-ethyl-3,9-diazaspiro[5.5]undecane-3-carboxamide 2,2,2-trifluoroacetate]	10 to 100 nM	–
CCOc1ncccc1C1(NC(=O)N2CCC3(CCN(C)CC3)CC2)C(=O)N(S(=O)(=O)c2ccc(OC)cc2OC)c2ccc(C#N)cc21 (centres unmarked) [Example 53, N-(5-Cyano-1-(2,4-dimethoxyphenylsulfonyl)-3-(2-ethoxypyridin-3-yl)-2-oxoindolin-3-yl)-9-methyl-3,9-diazaspiro[5.5]undecane-3-carboxamide 2,2,2-trifluoroacetate]	10 to 100 nM	–
CCOc1ncccc1C1(NC(=O)C2CCC3(CCNCC3)CC2)C(=O)N(S(=O)(=O)c2ccc(OC)cc2OC)c2ccc(C#N)cc21 (centres unmarked) [Example 52, N-(5-Cyano-1-(2,4-dimethoxyphenylsulfonyl)-3-(2-ethoxypyridin-3-yl)-2-oxoindolin-3-yl)-3-azaspiro[5.5]undecane-9-carboxamide 2,2,2-trifluoroacetate]	1 to 10 nM	–
CCOc1ncccc1C1(NC(=O)N2CC3(CCN(C)CC3)C2)C(=O)N(S(=O)(=O)c2ccc(OC)cc2OC)c2ccc(C#N)cc21 (centres unmarked) [Example 55, N-(5-Cyano-1-(2,4-dimethoxyphenylsulfonyl)-3-(2-ethoxypyridin-3-yl)-2-oxoindolin-3-yl)-7-methyl-2,7-diazaspiro[3.5]nonane-2-carboxamide 2,2,2-trifluoroacetate]	10 to 100 nM	–

More lines, now with the values ahead:

Ki [1]	Ki(h-V1a)/Ki(h-V1b) [2]	Compound
1 to 10 nM	+++ (>75)	CCOc1ncccc1[C@]1(NC(=O)N2CC3(CN(CCN(CC)CC)C3)C2)C(=O)N(S(=O)(=O)c2ccc(OC)cc2)c2ccc(C#N)cc21 [Example 9, N-[(3S)-5-Cyano-3-(2-ethoxy-3-pyridyl)-1-(4-methoxyphenyl)sulfonyl-2-oxo-indolin-3-yl]-2-(2-diethylaminoethyl)-2,6-diazaspiro[3.3]heptane-6-carboxamide]
10 to 100 nM	+++ (>75)	CCOc1ncccc1[C@]1(NC(=O)N2CC3(C2)CN(C2CCN(C(C)C)CC2)C3)C(=O)N(S(=O)(=O)c2ccc(C#N)cc2)c2ccc(C#N)cc21 [Example 24, N-[(3S)-5-cyano-1-(4-cyanophenyl)sulfonyl-3-(2-ethoxy-3-pyridyl)-2-oxo-indolin-3-yl]-2-(1-isopropyl-4-piperidyl)-2,6-diazaspiro[3.3]heptane-6-carboxamide]
10 to 100 nM	++ (25-75)	CCOc1ccccc1[C@]1(NC(=O)N2CC3(C2)CN(C2CCN(C4COC4)CC2)C3)C(=O)N(S(=O)(=O)c2ccc(OC)cc2)c2ccc(C#N)cc21.O=C(O)C(F)(F)F [Example 35B, N-[(3S)-5-Cyano-3-(2-ethoxyphenyl)-1-(4-methoxyphenyl)sulfonyl-2-oxo-indolin-3-yl]-2-[1-(oxetan-3-yl)-4-piperidyl]-2,6-diazaspiro[3.3]heptane-6-carboxamide; 2,2,2-trifluoroacetic acid]
1 to 10 nM	–	CCOc1ncccc1C1(NC(=O)C2CCC3(CC2)CCN(C2CCNCC2)CC3)C(=O)N(S(=O)(=O)c2ccc(OC)cc2OC)c2ccc(C#N)cc21 (centres unmarked) [Example 47, N-(5-Cyano-1-(2,4-dimethoxyphenylsulfonyl)-3-(2-ethoxypyridin-3-yl)-2-oxoindolin-3-yl)-3-(piperidin-4-yl)-3-azaspiro[5.5]undecane-9-carboxamide 2,2,2-trifluoroacetate]
–	++ (25-75)	CCOc1ncccc1[C@]1(NC(=O)N2CC3(CN(CCN4CCOCC4)C3)C2)C(=O)N(S(=O)(=O)c2ccc(C)cc2)c2ccc(C#N)cc21 [Example 16, N-[(3S)-5-Cyano-3-(2-ethoxy-3-pyridyl)-2-oxo-1-(p-tolylsulfonyl)indolin-3-yl]-2-(2-morpholinoethyl)-2,6-diazaspiro[3.3]heptane-6-carboxamide]
10 to 100 nM	–	CCOc1ncccc1C1(NC(=O)C2CC3(CNC3)C2)C(=O)N(S(=O)(=O)c2ccc(OC)cc2OC)c2ccc(C#N)cc21 (centres unmarked) [Example 57, N-(5-Cyano-1-(2,4-dimethoxyphenylsulfonyl)-3-(2-ethoxypyridin-3-yl)-2-oxoindolin-3-yl)-2-azaspiro[3.3]heptane-6-carboxamide 2,2,2-trifluoroacetate]
< 1 nM	–	CCOc1ncccc1C1(NC(=O)C2CC3(C2)CC(N2CCN(CC)CC2)C3)C(=O)N(S(=O)(=O)c2ccc(OC)cc2OC)c2ccc(C#N)cc21 (centres unmarked) [Example 54, N-(5-Cyano-1-(2,4-dimethoxyphenylsulfonyl)-3-(2-ethoxypyridin-3-yl)-2-oxoindolin-3-yl)-6-(4-ethylpiperazin-1-yl)spiro[3.3]heptane-2-carboxamide 2,2,2-trifluoroacetate]
10 to 100 nM	–	CCOc1ncccc1[C@]1(NC(=O)C2CC3(CNC3)C2)C(=O)N(S(=O)(=O)c2ccc(OC)cc2)c2ccc(C#N)cc21 [Example 44, N-[(3S)-5-Cyano-3-(2-ethoxy-3-pyridyl)-1-(4-methoxyphenyl)sulfonyl-2-oxo-indolin-3-yl]-6-azaspiro[3.3]heptane-2-carboxamide]
10 to 100 nM	–	CCOc1ncccc1C1(NC(=O)N2CCC3(CC2)CN(C2CCNCC2)C3)C(=O)N(S(=O)(=O)c2ccc(OC)cc2OC)c2ccc(C#N)cc21 (centres unmarked) [Example 50, N-(5-Cyano-1-(2,4-dimethoxyphenylsulfonyl)-3-(2-ethoxypyridin-3-yl)-2-oxoindolin-3-yl)-2-(piperidin-4-yl)-2,7-diazaspiro[3.5]nonane-7-carboxamide bis-2,2,2-trifluoroacetate]
